Experimental data from US10196361B2, “Sodium salt of uric acid transporter inhibitor and crystalline form thereof” (Jiangsu Hengrui Medicine Co., Ltd., priority 2015, dated 2019).

Assays:
solubility in water = type: physicochemical
[1] = stability of crystal form I under lighting, heating and high humidity (purity by HPLC); type: physicochemical; details: for stability: spread flat in the air, lighting, high temperature and high humidity
Description: The sample of crystal form I prepared in Example 1 was spread flat in the air to test its stability under conditions of lighting (4500 Lux), heating (40° C., 60° C.), and high humidity (RH 75%, RH 90%). Samplings were carried out on Day 5 and Day 10.

[2] = special stability study of crystal form I (grinding, heating, pressing); type: physicochemical
From the text: Crystal form I of the compound of formula (I) prepared according to the method of Example 1 was ground, heated and pressed.

[3] = pharmacokinetic assay in rats; type: in vivo, Sprague-Dawley (SD) rats; details: for AUC(0-t) / half-life / MRT inf / Cmax: single; for AUC(0-t): read-out: Area under curve AUC0-t; for half-life: read-out: Half life t1/2 (converted); for MRT inf: read-out: Resistance time MRT0-∞; for Cmax: read-out: Plasma concentration Cmax
Description: In the pharmacokinetic assay of the compound of Example 1 of the present invention, Sprague-Dawley (SD) rats were used as test animals. The compound of Example 1 was administrated intragastrically and intravenously to rats, then the drug concentration in the plasma at different time points was determined by a LC/MS/MS method to study the pharmacokinetic behavior and to evaluate the pharmacokinetic characteristics of the compound of the present invention in rats.

[4] = pharmacokinetic assay in dogs; type: in vivo, Beagle dogs; details: for AUC(0-t) / half-life / MRT inf / Cmax: single; for AUC(0-t): read-out: Area under curve AUC0-t; for half-life: read-out: Half life t1/2 (converted); for MRT inf: read-out: Resistance time MRT0-∞; for Cmax: read-out: Plasma concentration Cmax
Description: In the pharmacokinetic assay of the compound of Example 1 of the present invention, Beagle dogs were used as test animals. The compound of Example 1 was administrated intragastrically and intravenously to dogs, then the drug concentration in the plasma at different time points was determined by a LC/MS/MS method to study the pharmacokinetic behavior and to evaluate the pharmacokinetic characteristics of the compound of the present invention in dogs.

[5] = Sprague-Dawley, rat, plasma, intravenous, 3 mg/kg
[6] = Sprague-Dawley, rat, plasma, po, intragastric, 3 mg/kg
[7] = Sprague-Dawley, rat, plasma, po, intragastric, 9 mg/kg
[8] = Sprague-Dawley, rat, plasma, po, intragastric, 27 mg/kg
[9] = Beagle, dog, plasma, intravenous, 3 mg/kg
[10] = Beagle, dog, plasma, po, intragastric, 3 mg/kg
[11] = Beagle, dog, plasma, po, intragastric, 9 mg/kg
[12] = beagle, dog, plasma, po, intragastric, 27 mg/kg

O=C(O)C1(Sc2ccnc3ccc(Br)cc23)CCC1 [1-((6-bromoquinolin-4-yl)thio)cyclobutane-1-carboxylic acid, reference compound]
solubility in water (solubility in water): almost insoluble

O=C([O-])C1(Sc2ccnc3ccc(Br)cc23)CCC1.[Na+] [Example 1, sodium 1-((6-bromoquinolin-4-yl)thio)cyclobutane-1-carboxylate]
solubility (solubility in water): 140 µg/mL | purity as detected by HPLC ([1]; 40° C., day 0): 99.76% | purity as detected by HPLC ([1]; 40° C., day 5): 99.73% | purity as detected by HPLC ([1]; 40° C., day 10): 99.73% | purity as detected by HPLC ([1]; 60° C., day 0): 99.76% | purity as detected by HPLC ([1]; 60° C., day 5): 99.73% | purity as detected by HPLC ([1]; 60° C., day 10): 99.71% | purity as detected by HPLC ([1]; Lighting (4500 Lux), day 0): 99.76% | purity as detected by HPLC ([1]; Lighting (4500 Lux), day 5): 99.75% | purity as detected by HPLC ([1]; Lighting (4500 Lux), day 10): 99.70% | purity as detected by HPLC ([1]; RH 75%, day 0): 99.76% | purity as detected by HPLC ([1]; RH 75%, day 5): 99.74% | purity as detected by HPLC ([1]; RH 75%, day 10): 99.74% | purity as detected by HPLC ([1]; RH 90%, day 0): 99.76% | purity as detected by HPLC ([1]; RH 90%, day 5): 99.74% | purity as detected by HPLC ([1]; RH 90%, day 10): 99.73% | stability ([1]; listed as crystal form I): good stability | stability ([1]; listed as crystal form I of the compound of formula (I)): stable | DSC peak after treatment ([2]; Grinding treatment for 10 minutes): >300 °C | DSC peak after treatment ([2]; Heating treatment for 3 hours at 80° C.): >300 °C | DSC peak after treatment ([2]; Pressing treatment): >300 °C | stability of the crystal form ([2]; grinding, heating and pressure): stable | oral absorption [3]: well absorbed | AUC(0-t) [3, 5]: 56000 ± 19600 ng·h/mL | half-life [3, 5]: 5.5 ± 1.88 h | MRT inf [3, 5]: 6.18 ± 1.33 h | AUC(0-t) [3, 6]: 41500 ± 27200 ng·h/mL | half-life [3, 6]: 4.58 ± 0.85 h | Cmax [3, 6]: 10500 ± 7900 ng/mL | MRT inf [3, 6]: 6.15 ± 1.51 h | AUC(0-t) [3, 7]: 119000 ± 65000 ng·h/mL | half-life [3, 7]: 5.07 ± 2.08 h | Cmax [3, 7]: 22000 ± 11000 ng/mL | MRT inf [3, 7]: 7.11 ± 1.75 h | AUC(0-t) [3, 8]: 336000 ± 241000 ng·h/mL | half-life [3, 8]: 4.59 ± 0.5 h | Cmax [3, 8]: 38800 ± 17000 ng/mL | MRT inf [3, 8]: 7.09 ± 1.33 h | bioavailability ([3]; Sprague-Dawley, rat, plasma, po, single intragastric 3 mg/kg, from mean AUC0-t, read-out: absolute bioavailability): 74.1% | oral absorption [4]: well absorbed | AUC(0-t) [4, 9]: 14500 ± 3600 ng·h/mL | half-life [4, 9]: 4.51 ± 2.25 h | MRT inf [4, 9]: 3.57 ± 1.89 h | AUC(0-t) [4, 10]: 8630 ± 3440 ng·h/mL | half-life [4, 10]: 3.49 ± 1.2 h | Cmax [4, 10]: 8450 ± 2100 ng/mL | MRT inf [4, 10]: 3.03 ± 1.03 h | AUC(0-t) [4, 11]: 37500 ± 10800 ng·h/mL | half-life [4, 11]: 3.83 ± 2 h | Cmax [4, 11]: 27600 ± 4800 ng/mL | MRT inf [4, 11]: 3.48 ± 1.36 h | AUC(0-t) [4, 12]: 105000 ± 30900 ng·h/mL | half-life [4, 12]: 4.31 ± 1.6 h | Cmax [4, 12]: 78600 ± 22000 ng/mL | MRT inf [4, 12]: 3.38 ± 0.96 h | bioavailability ([4]; beagle, dog, plasma, po, single intragastric 3 mg/kg, from mean AUC0-t, read-out: absolute bioavailability): 59.5%
